These results are taken from patent US9968650B2, “Modified viral structural protein with antiviral activity” (priority 2011, dated 2018).

“Also recorded” adds a separate entry of the source.

Experiment [1] concerns the target T1, HBV capsid assembly (Hepatitis B virus genotype D subtype adw, UniProt P03147).
T1 construct: (Cp149), which is the N-terminal first 149 residues of the core protein; made in house; host or cells: E. coli BL21 (DE3) (printed for V124W; WT 'as previously described')
As to the kind of experiment: Extent of core protein assembly without HAP12 by size exclusion chromatography. Format: biochemical. The protocol:
(§1) The adyw strain of HBV Cp149-pET11c (Genbank accession no. J02202.1) construct was mutated to Cp149-V124W (GTG to TGG) with the QuikChange mutagenesis kit (Stratagene). […] V124W purification was performed as previously described for HBV Cp149-WT purification. Based on the biochemical studies in this paper, in the re-assembly step, using 50 mM NaCl instead of 500 mM NaCl to induce re-assembly yielded more capsid with slightly more aggressive assembly activity. Protein concentration was determined using an extinction coefficient of 70,025 M^−1 cm^−1 per V124W dimer at 280 nm, calculated by ExPASy Proteomics Server based on the protein sequence and assuming one disulfide bond per dimer WT dimer was purified exactly as previously described. The extinction coefficient of WT dimer is 60,900 M^−1 cm^−1 at 280 nm. Before assembly studies, frozen protein stock was dialyzed into 50 mM HEPES, pH 7.5 for at least 2×2 h at 4° C. The standard assembly buffer was 50 mM HEPES, pH 7.5 at 23° C. with varied NaCl concentrations. Protein stock was treated with 1% to 5% β-mercaptoethanol for 20 min before assembly.
(§2) To test for resistance to HAP molecules, 10 μM protein with varied HAP12 concentrations (2.5 to 60 μM) was induced to assemble at 50 mM NaCl. Before adding 10× NaCl, protein was incubated with HAP12 at 23° C. for 20 min. Each reaction was incubated at 23° C. for 24 h to equilibrate. Under these conditions, 24 h was long enough to allow reactions to reach equilibrium. Capsid, abnormal structures and dimer concentrations were determined by SEC as described above.
Background: Size exclusion chromatography separates by hydrodynamic size, large species first.

Experiment [2] relates to HBV capsid assembly. Described as above. Format: biochemical, Hepatitis B virus (HBV). The settings on record: 10 μM protein, 50 mM NaCl, 23° C., without HAP12. The protocol:
as §1, §2

Another experiment relates to HBV replication. As to the kind of experiment: Southern blot analysis of encapsidated HBV DNA in transfected Huh7 cells. Format: cell-based, Hepatitis B virus (HBV). The settings on record: WT normalized to 100%, SD in parenthesis, * values at limit of detection. From the text: (§3) All HBV plasmids used in cell culture experiments were derived from subtype ayw (Genbank accession no. V01460). These plasmids express pgRNA under the control of the cytomegalovirus (CMV) immediate early promoter. […] Plasmids C^WT or C^V124W express core protein but not P or envelope proteins and lack a functional encapsidation signal, GFP protein was expressed from a separate plasmid (provided by Bill Sugden, UW-Madison). Details of construction and sequence of any plasmid will be provided upon request.
The human hepatoma cell line Huh7 was used to study HBV replication. Cells were grown in 60 mm plates at 37° C. in 5% CO2, in DMEM/F12 medium supplemented with 5% FBS (Invitrogen, Grand Island, N.Y.). Cells were approximately 75% confluent or greater at time of transfection. DNA transfections were performed using calcium phosphate precipitation. For experiments using WT^P+C+ and V124W^P+C+, 5 μg of total plasmid mass was transfected. Each transfection experiments were repeated three times independently. For V124W titration experiment, 2 μg WT^P+C+ and varied C^V124W (0 to 8 μg) were used. A filler plasmid pCMV-Sport6 was used to keep the total plasmid mass at 10 μg. 0.125 μg of the GFP expression plasmid was used in every transfection. Typically, medium containing the calcium phosphate precipitate was removed after 16 hours, fresh medium added, and the cultures were grown for an additional 96 hours.
Nucleic acid from cytoplasmic capsids was isolated as described previously. Briefly, cells were lysed in a solution containing 50 mM Tris, 1 mM EDTA, 0.2% NP40, pH 8.0. Nuclei were pelleted via centrifugation and supernatant was collected. A fraction of this lysate was used for detection of core protein and GFP. The remainder of the cytoplasmic lysate was treated with 45 units of micrococcal nuclease (Worthington Biochemicals, Lakewood, N.J.) in the presence of 2 mM CaCl2 to digest plasmid DNA and unencapsidated pgRNA, followed by treatment with 0.4% SDS and 0.4 mg/ml Pronase® (Roche, Nutley, N.J.) to digest nucleocapsids and P protein. Encapsidated nucleic acids were extracted with 1:1 phenokchloroform, precipitated with ethanol and NaCl, and re-suspended in 30 μl of a solution of 10 mM Tris, 0.1 mM EDTA, pH 8.0.
An aliquot of viral DNA was electrophoresed through a 1.25% agarose gel. DNA was denatured and neutralized in situ in 0.5 N NaOH/1.5 M NaCl and 1 M Tris/1.5 M NaCl, respectively, followed by passive transfer to Hybond-N (GE® Lifesciences, Piscataway, N.J.) in 10×SSC. Viral DNA was detected on the membrane using an equimolar pool of oligonucleotides that detected (−) DNA. […] Levels of DNA were measured using the software ImageQuant® 5.2 (Molecular Dynamics). DNA levels were normalized to GFP levels as determined previously by western blot. […]

Another experiment has as its target T2, Cp149 dimer interface (Hepatitis B virus genotype D subtype adw, UniProt P03147).
T2 construct: (Cp149), which is the N-terminal first 149 residues of the core protein
The settings on record: cited from earlier work.

Experiment [3] concerns HBV capsid assembly. Put plainly: 90° light scattering assembly kinetics of core protein alone. The settings on record: 10 μM protein, 50 mM NaCl, first 800 seconds. Format: biochemical, Hepatitis B virus (HBV). The protocol:
Light scattering was monitored at 90° using 400 inn excitation and emission wavelength with a Photon Technology International fluorometer for at least 800 seconds at 23° C. 10 μM protein (WT or V124W) was incubated with or without 20 μM HAP12 for 20 min prior to adding equal volume of 2× NaCl to a final concentration of 50 mM NaCl. Each sample was repeated 3-4 times independently.
90° Light scattering is a well-established method to monitor the virus assembly kinetics because of the significant difference between the size of the capsid and the dimer. HBV core protein assembly is induced by increasing the ionic strength in vitro, which is achieved by adding NaCl to the reaction system. Higher ionic strength leads to assembly faster and further due to the stronger association energy between dimers.

In another experiment the test system is core protein. Put plainly: Western blot analysis of core protein level in transfected Huh7 cells. Format: cell-based, Hepatitis B virus (HBV). The settings on record: normalized to GFP, WT = 100%, SD in parenthesis.
Description: as §3
The human hepatoma cell line Huh7 was used to study HBV replication. Cells were grown in 60 mm plates at 37° C. in 5% CO2, in DMEM/F12 medium supplemented with 5% FBS (Invitrogen, Grand Island, N.Y.). […]
A fraction of cytoplasmic lysate was used to run a 15% SDS-PAGE, followed by transfer of proteins to PVDF-FL (Millipore®, Billerica, Mass.) in methanol transfer buffer (details of SDS-PAGE and transfer solutions provided upon request). […] Core protein was detected using a rabbit α-core antibody (Austral Biologicals®, San Ramon, Calif.) at a dilution of 1:500, and a goat α-rabbit IRDye800CW antibody (Li-Cor®) at a dilution of 1:10,000. GFP was detected using a mouse α-GFP antibody (Santa Cruz® Biotechnology, San Cruz, Calif.) at a dilution of 1:500, and a goat α-mouse IRDye680LT antibody (Li-Cor®) at a dilution of 1:10,000. […] Core levels were normalized to GFP levels for quantitation. […]
A general note: Immunoblotting shows a protein as a band on a membrane.

For experiment [4], the system named is HBV capsid assembly. As to the kind of experiment: Size exclusion chromatography of equilibrium capsid assembly and calculation of thermodynamic parameters. The settings on record: 100 mM NaCl, 23° C.; for pseudo-critical concentration: 72 h equilibration. Format: biochemical, Hepatitis B virus (HBV). The protocol:
as §1
WT and V124W at varied concentrations (WT, 40 to 80 μM; V124W, 2.5 to 30 μM), were induced to assemble at 100 mM NaCl to equilibration for 72 h or longer at 23° C. […] Capsid and dimer concentrations in assembly reactions were determined by size exclusion chromatography (SEC) through a 21 ml Superose 6 column. ΔGcontact and KD,apparent were calculated as previously described. KD,apparent was the average of the equilibrium dimer concentrations which were nearly constant.

Another experiment deals with HIV-1 NL4-3. The settings on record: cited from earlier work.
For another experiment, the target named is Gag (Human immunodeficiency virus type 1 group M subtype B, UniProt P12493). The settings on record: cited from earlier work.
In another experiment the target is HIV-1 CA (Human immunodeficiency virus type 1 group M subtype B, UniProt P12493). The settings on record: cited from earlier work.

T1 sequence (P03147 1-149): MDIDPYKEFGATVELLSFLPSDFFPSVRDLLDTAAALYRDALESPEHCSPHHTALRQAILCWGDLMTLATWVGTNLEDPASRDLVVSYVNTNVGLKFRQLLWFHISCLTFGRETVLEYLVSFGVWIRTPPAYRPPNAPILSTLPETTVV
T2 sequence (P03147 1-149): as above

“WT: wild type HBV core protein; Cp149 is the N-terminal 149-residue assembly domain, used as control”: the “capsid formation at 150 mM NaCl” value in the experiment with HBV capsid assembly [1] (10 μM protein, 150 mM NaCl (data not shown)) is listed as “did not observe any capsid formation”. For the same compound, the “concentration needed to see any assembly” value in the experiment with HBV capsid assembly [1] (under similar conditions (NaCl-induced assembly, FIG. 10)) is 45 µM. Also, the “extent of assembly (dimers assembled into capsids)” value in the experiment on HBV capsid assembly [2] is on record as “no assembly”. In addition, in the experiment on HBV capsid assembly [2] (listed as wild type Cp149), the “extent of assembly (dimers assembled into capsids)” value is “does not assemble at all; also recorded: no assembly”. In the experiment on HBV replication, the dlDNA was 100% (27%), the ssDNA is 100% (19%) and the “total DNA” value is reported as 100% (19%). The rcDNA in the experiment on HBV replication (three independent transfections) is recorded as 100% (46%). The “association energy at the dimer interface” value with Cp149 dimer interface (150 mM NaCl 37° C., without HAP) was -3.87 kcal/mol. Further, in the experiment with HBV capsid assembly [3], the “assembly kinetics without HAP12 (in words)” value is listed as “did not assemble”. The core protein with core protein was 100% (39%). In addition, in the experiment with HBV capsid assembly [4], the ΔGcontact was -2.74 ± 0.04 kcal/mol and the pseudo-critical concentration entry is reported as “about 43 μM”. For the same compound, in the experiment with HBV capsid assembly [4] (listed as wild type Cp149), the pseudo-critical concentration was 43.6 ± 5.1 µM and the ΔGcontact is -2.74 ± 0.04 kcal/mol. Further, on HBV capsid assembly [4] (read-out: KD, apparent), the Kd was 43.3 ± 4.97 µM.
In the case of `Cc1[nH]c2ccccc2c1CC(=O)N[C@@H](Cc1ccccc1)C(=O)N(C)c1ccccc1` [PF-3450074], the “antiviral activity against HIV” value with HIV-1 NL4-3 was “inhibit HIV replication”. Also, on Gag, the Gag association result was “does not inhibit”. Moreover, at HIV-1 CA, the “rate of CA multimerization” value was “significant increase”.
Regarding `COC(=O)C1=C(C)NC(c2ncc(F)cc2F)=N[C@H]1c1ccc(F)cc1Cl` [BAY41-4109], the “HAP stoichiometry necessary to generate aberrant structures” value on Cp149 dimer interface (pure BAY41-4109) is listed as “greater than one HAP per two dimers”.
